Paper PMC6880192, “Structure–Effect Relationships of Novel Semi-Synthetic Cannabinoid Derivatives” (Frontiers in Pharmacology, 2019)
“Also recorded” adds a separate entry of the source.

Columns and labels:
primary human monocytes = assay: Anti-inflammatory effect on LPS-treated monocytes (ELISA); assay type: cell-based
Description: Human peripheral blood monocytes were prepared from healthy donors who provided written informed consent at the local blood bank (University Hospital of Freiburg, Germany). Mononuclear cells were isolated by density gradient centrifugation according to standard protocol ([English and Andersen, 1974]) using lymphocyte separation medium, (PAN Biotech, Aidenbach). Cells were resuspended in RPMI-1640 medium (Invitrogen/Thermo Fisher Scientific, Karlsruhe) containing 10% human serum (Hexacell, Berlin). About 5 × 10^5 cells per milliliter were seeded in 24-well plates and incubated at 37°C and 5% CO2. The medium and the non-adherent cells were removed by washing with PBS and fresh RPMI medium, and 1% human serum was added to each well.
To test the anti-inflammatory effect of the test compounds, monocytes were incubated for 30 min with increasing doses of the test compounds. Then lipopolysaccharide (LPS) (10 ng/ml; Escherichia coli, Sigma-Aldrich, St. Louis) was added followed by a 24 h incubation period. The supernatants were removed and the levels of IL-1β, IL-6, IL-8, TNF-α, and prostaglandin E2 (PGE2) determined by enzyme-linked immunosorbent assay (ELISA) performed according to the manufacturer’s instructions (IL-1β from Hiss, Freiburg; IL-6, IL-8, and TNF-α from ImmunoTools, Friesoythe; and PGE2 from Cayman, distributed by Biozol, Hamburg). Stimulation with LPS alone was considered 100%.

NFAT = assay: PMA/IO-induced NFAT-luc activation in Jurkat T-cells; assay type: cell-based; conditions: 0.5–25 µmol/L
Description: (§1) Jurkat T-cells (10^6 cells per milliliter) were transiently transfected with plasmids that contained an NF-κB-dependent (KBF-luc) or NFAT-dependent (NFAT-luc) promotors fused to the luciferase gene using Lipofectin (Life Technologies, Carlsbad) according to the manufacturer’s instructions ([Yano et al. 1987]; [Durand et al. 1988]). Twenty-four hours after transfection, cells were stimulated for 30 min with increasing doses of the test compounds or WIN as a control (Tocris, Bristol). Then PMA (50 ng/ml)—for NFAT-luc—plus ionomycin (0.5 µg/ml) (Sigma-Aldrich, St. Louis) was added, followed by a 6 h incubation period.
(§2) After the stimulations and incubations, cells were lysed in a solution of 25 mmol Tris-phosphate (pH = 7.8), 8 mmol MgCl2, 1 mmol dithiothreitol (DTT), 1% Triton X-100, and 7% glycerol. The luciferase activity was measured with a Luciferase Assay Kit (Promega, Madison) according to the manufacturer’s instructions using an AutoLumat LB 9501 (Berthold Technologies, Bad Wildbad).

RAW264.7 macrophages [1] = assay: MTT cytotoxicity assay; assay type: cell-based; conditions: RAW264.7, concentrations of 5 and 10 µmol/L
From the text: Cytotoxicity tests were done on CHO cells, Jurkat T-cells, or RAW264.7 macrophages using the MTT assay (Sigma-Aldrich, St. Louis) and on primary human monocytes with the alamarBlue assay (Thermo Fisher Scientific, Karlsruhe).

CB2-receptor [2] = target: T1, CB2-receptor (Homo sapiens, UniProt P34972); assay: cAMP-dependent luciferase assay in CHO-CB2-CRE-luc cells; assay type: cell-based; conditions: for CB2-receptor agonistic activity (fold induction of CRE-luc): 15 min pre-incubation, then 10 µmol/L FSK for 6 h; for Effect on CB2: CHO-CB2-CRE-luc, summary classification; for CB2 agonistic effect compared with positive control WIN: same dose as 1 µmol/L WIN
T1 construct: expressed in transfected cells; host or cells: CHO cells, stably transfected with CB2 cDNA (from IMIBIC) and transiently with CRE-luc
T1 sequence (P34972 whole entry): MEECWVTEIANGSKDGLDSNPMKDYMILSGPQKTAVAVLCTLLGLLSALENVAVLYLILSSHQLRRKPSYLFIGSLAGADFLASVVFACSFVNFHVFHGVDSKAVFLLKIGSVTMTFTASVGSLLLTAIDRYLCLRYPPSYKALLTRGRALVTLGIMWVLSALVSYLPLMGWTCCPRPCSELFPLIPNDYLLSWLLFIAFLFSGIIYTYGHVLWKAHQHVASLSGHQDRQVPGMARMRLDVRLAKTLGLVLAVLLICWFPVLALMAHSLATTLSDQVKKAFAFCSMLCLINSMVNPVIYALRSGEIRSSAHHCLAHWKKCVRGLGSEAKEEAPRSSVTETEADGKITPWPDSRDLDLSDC
Description: (§3) Briefly, CHO cells were stably transfected with CB1- and CB2-receptor complementary DNAs (cDNAs) (kindly provided by IMIBIC). Around 10^5 transfected cells per milliliter were seeded in 24-well plates and transiently transfected with the plasmid CRE-luc using Roti-Fect (Carl Roth, Karlsruhe) following the manufacturer’s instructions. The cells were harvested after 24 h. Two transfected cell types resulted: CHO-CB1-CRE-luc and CHO-CB2-CRE-luc.
(§4) To test for agonistic activity at the CB1-receptor, the CHO-CB1-CRE-luc cells were stimulated for 6 h with increasing concentrations of the test compounds ([Bouaboula et al. 1997]). Forskolin (FSK), a strong CB-receptor-independent activator of adenylyl-cyclase was used at 10 µmol/L as a positive control. To investigate the antagonistic activity, the CHO-CB1-CRE-luc cells were pre-incubated for 15 min with the test compounds before stimulation for 6 h with 1 µmol/L WIN ([Zheng et al. 2013]). To investigate CB2-receptor agonistic activity, CHO-CB2-CRE-luc cells were pre-incubated for 15 min with increasing concentrations of the test substances and then for 6 h with 10 µmol/L FSK. WIN, a non-specific agonist at CB2-receptors, was used as a positive control. To confirm CB2-receptor agonistic activities of the test compounds, CHO-CB2-CRE-luc cells were pre-incubated with the specific CB2-receptor antagonist AM630 (1 µmol/L, 6-iodopravadoline; Cayman, distributed by Biozol, Hamburg) ([Ross et al. 1999]; [Zheng et al. 2013]) and then treated with increasing concentrations of the test substances.
as §2

CB2-receptor [3] = target: T1, CB2-receptor; assay: Competition binding against [3H]-CP55940, CB2 membranes; conditions: for Selectivity CB2/CB1: ratio of Ki values; for Ki: mean ± SEM, n = 3, radioligand [3H]-CP55940
CB1-receptor [4] = target: T2, CB1-receptor (Homo sapiens, UniProt P21554); assay: cAMP-dependent luciferase assay in CHO-CB1-CRE-luc cells; assay type: cell-based; conditions: for Effect on CB1: CHO-CB1-CRE-luc, summary classification; for CB1-receptor antagonistic activity (fold induction of CRE-luc): 15 min pre-incubation, then 1 µmol/L WIN for 6 h; for CB1-receptor agonistic activity (fold induction of CRE-luc): 6 h stimulation with test compound
T2 construct: expressed in transfected cells; host or cells: CHO cells, stably transfected with CB1 cDNA (from IMIBIC) and transiently with CRE-luc
T2 sequence (P21554 whole entry): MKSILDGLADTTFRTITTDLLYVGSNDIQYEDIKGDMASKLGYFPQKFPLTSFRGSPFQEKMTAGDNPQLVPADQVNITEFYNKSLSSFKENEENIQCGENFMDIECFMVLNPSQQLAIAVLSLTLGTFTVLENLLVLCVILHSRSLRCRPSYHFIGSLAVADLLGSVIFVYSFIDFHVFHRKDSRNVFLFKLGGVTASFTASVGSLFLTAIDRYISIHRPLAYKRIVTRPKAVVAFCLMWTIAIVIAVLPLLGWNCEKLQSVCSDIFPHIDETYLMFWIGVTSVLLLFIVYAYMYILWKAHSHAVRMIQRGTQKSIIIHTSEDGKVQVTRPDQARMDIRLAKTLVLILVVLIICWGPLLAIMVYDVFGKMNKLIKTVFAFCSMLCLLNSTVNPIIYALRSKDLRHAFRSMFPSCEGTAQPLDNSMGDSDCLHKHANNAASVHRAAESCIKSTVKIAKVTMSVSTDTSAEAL
Description: as §3, §4, §2

CB1-receptor [5] = target: T2, CB1-receptor; assay: biochemical; assay type: binding; conditions: mean ± SEM, n = 3; radioligand [3H]-CP55940
RAW264.7 macrophages [6] = assay: IL-17-induced polarization to pro-inflammatory M1 macrophages (qPCR); assay type: cell-based; conditions: RAW264.7, 0.5 to 10 µmol/L
Description: To assess the IL-17-induced polarization to pro-inflammatory M1 macrophages, RAW264.7 macrophages (10^6 cells per Petri dish) were incubated for 18 h with or without the test compounds containing 0.1% FBS. Subsequently, they were stimulated for 24 h with recombinant murine IL-17 (50 ng/ml; R&D Systems, Minneapolis). The CB2-receptor agonist JWH-133 was used as a positive control. Then, the messenger RNA (mRNA) was extracted using RNeasy Mini Kits (Qiagen, Hilden), and its purity determined by UV measurements at 260 and 280 nm. The induction of IL-6, IL-1β, CC-chemokine ligand 2 (CCL2), and tumor necrosis factor (TNF)-α mRNA was assessed as markers of pro-inflammatory activity using quantitative real-time polymerase chain reactions (qPCRs).
mRNA reverse transcription in cDNA was performed with iQ™ SYBR Green Supermix and the CFX96 real-time PCR system (Bio-Rad, Hercules). The amplification consisted of a 5 min denaturation at 95°C followed by 40 cycles each of 30 s at 95°C and 30 s at 55°C (annealing). Elongation for 30 s at 72°C came next, followed by a cycle for 10 s at 83°C and finally a cycle for 1 min at 72°C. Calculations were made according to the Livak method by quantifying glyceraldehyde 3-phosphate dehydrogenase (GAPDH) as a reference ([Schmittgen and Livak 2008]). The results are given as multiples of the reference gene ([…]).

NF-κB = assay: PMA-induced NF-κB-luc (KBF-luc) activation in Jurkat T-cells; assay type: cell-based; conditions: 0.5–25 µmol/L
Description: as §1, §2

Row | SMILES | LPS-induced IL-1β release (primary human monocytes; LPS 10 ng/ml, 24 h) | LPS-induced IL-6 release (primary human monocytes; LPS 10 ng/ml, 24 h) | LPS-induced TNF-α release (primary human monocytes; LPS 10 ng/ml, 24 h) | Inhibition of PMA/IO-induced NFAT activation (NFAT) | CB2-receptor agonistic activity (fold induction of CRE-luc) (CB2-receptor [2]) | Effect on CB2 (CB2-receptor [2]) | CB2 agonistic effect compared with positive control WIN (CB2-receptor [2]) | Selectivity CB2/CB1 (CB2-receptor [3]) | Effect on CB1 (CB1-receptor [4]) | Ki (CB1-receptor [5]) | Ki (CB2-receptor [3]) | IL-17-stimulated CCL2 mRNA expression (RAW264.7 macrophages [6]) | IL-17-stimulated IL-1β mRNA expression (RAW264.7 macrophages [6]) | LPS-induced IL-8 release (primary human monocytes; LPS 10 ng/ml, 24 h) | Inhibition of PMA-induced NF-κB activation (NF-κB) | CB1-receptor antagonistic activity (fold induction of CRE-luc) (CB1-receptor [4]) | CB1-receptor agonistic activity (fold induction of CRE-luc) (CB1-receptor [4]) | further results
1 | C=C(C)[C@@H]1CCC(C)=C[C@H]1c1c(O)cc(CCCCC)c(C(=O)OCCO)c1O [2-HEC (1), 2-hydroxyethyl cannabidiolate] | significantly inhibited | significantly inhibited | significantly inhibited | significantly inhibited | dose dependency | Agonist | as strong as the same dose of the positive control | 10.5 | Antagonist | – | – | – | – | – | – | – | – | Effect on cell viability (RAW264.7 macrophages [1]): negative effect on cell viability
2 | C=C(C)[C@@H]1CCC(C)=C[C@H]1c1c(O)cc(CCC)c(C(=O)OCCO)c1O [2-HECBDV (7), 2-hydroxyethyl cannabidivarinolate] | – | – | – | – | dose-dependent agonistic effects | Agonist | – | 33.6 | Antagonist | 5.65 µM | 0.168 ± 0.0394 µM | – | – | – | – | – | – | –
3 | C=C(C)[C@@H]1CCC(C)=C[C@H]1c1c(O)cc(CCCCC)c(C(=O)OCC(O)CCC)c1O (some centres unmarked) [2-HPC (2), 2-hydroxypentyl cannabidiolate] | – | significantly inhibited | significantly inhibited | significantly inhibited | – | Agonist | – | – | Antagonist | – | – | – | – | – | – | – | – | LPS-stimulated IL-8 synthesis (primary human monocytes; dose of 1 µmol/L): inhibited; LPS-stimulated PGE2 synthesis (primary human monocytes; dose of 1 µmol/L): inhibited; Effect on cell viability (RAW264.7 macrophages [1]): negative effect on cell viability
4 | C=C(C)[C@@H]1CCC(C)=C[C@H]1c1c(O)cc(CCCCC)c(C(=O)OC2CCCCC2)c1O [CHC (4), cyclohexyl cannabidiolate] | reduced | moderately and dose-dependently inhibited | reduced | did not inhibit | – | Agonist | as strong as the same dose of the positive control | 1.7 | Agonist | 0.87 ± 0.1 µM | 0.51 ± 0.29 µM | inhibited | inhibited | moderately and dose-dependently inhibited | did not inhibit | negative | activate CB1-receptors | Anti-inflammatory effects overall (primary human monocytes; LPS 10 ng/ml, 24 h): only very weak anti-inflammatory effects
5 | C=C(C)[C@@H]1CCC(C)=C[C@H]1c1c(O)cc(CCC)c(C(=O)OC2CCCCC2)c1O [CHCBDV (8), cyclohexyl cannabidivarinolate] | – | – | – | – | non-selective agonism | Agonist | – | 2.9 | Agonist | 0.0132 ± 0.0009 µM | 0.00462 ± 0.0005 µM | – | – | – | – | – | non-selective agonism | –
6 | C=C(C)[C@@H]1CCC(C)=C[C@H]1c1c(O)cc(CCCCC)c(C(=O)OCCCCCC)c1O [HC (5), n-hexyl-cannabidiolate] | inhibited at higher doses | dose-dependently inhibited | dose-dependently inhibited | no inhibition | did not activate | No activity | – | 37.3 | Antagonist | 2.5 µM | 0.067 ± 0.004 µM | inhibited | inhibited | inhibited at higher doses | only marginal | dose-dependent activity | – | IL-17-stimulated IL-6 mRNA expression (RAW264.7 macrophages [6]): dose-dependent reduction
7 | C=C(C)[C@@H]1CCC(C)=C[C@H]1c1c(O)cc(CCC)c(C(=O)OCCCCCC)c1O [HCBDV (9), n-hexyl cannabidivarinolate] | – | – | – | – | no effect | No activity | – | 0.8 | Agonist | 0.0083 ± 0.00069 µM | 0.0099 ± 0.0025 µM | – | – | – | – | – | agonistic effects | –
8 | C=C(C)[C@@H]1CCC(C)=C[C@H]1c1c(O)cc(CCCCC)c(C(=O)OCCNS(C)(=O)=O)c1O [NMSC (6), 2-(methylsulfonamido)ethyl cannabidiolate] | enhanced | – | significantly reduced | significantly inhibited | – | Agonist | similarly strongly agonistic | 22.5 | Antagonist | 0.27 ± 0.04 µM | 0.012 ± 0.001 µM | reduced compared to the control at all concentrations | inhibited TNF-α and IL-1β only at low doses | significantly reduced | inhibited | dose-dependent activity; also recorded: strongly CB1 antagonistic | – | IL-17-stimulated IL-6 mRNA expression (RAW264.7 macrophages [6]): co-stimulated; IL-17-stimulated TNF-α mRNA expression (RAW264.7 macrophages [6]): inhibited TNF-α and IL-1β only at low doses; LPS-induced PGE2 release (primary human monocytes; LPS 10 ng/ml, 24 h): significantly reduced; preference for the CB2-receptor (CB2-receptor [3]; CB2 over CB1): 22.5 fold
